The record followed here is EP0986299B1, “PLANT TRANSFORMATION METHODS” (Syngenta Participations AG, priority 1997, dated 1998).

Read-outs that look alike come from different tables or passages of the source.

In series [1] the test system is maize embryos. The settings on record: for Score (Callus initiation): transfer 2DG4 + AgNO3 +Cef, two weeks. Here is the method:
Immature embryos (1.2 to 2.2 mm in length) are aseptically excised 14-15 days after pollination from surface-sterilized, greenhouse-grown ears and plated scutellum up on callus initiation medium, 2DG4 + 5 mg/l chloramben (2DG4-5Chl). 2DG4 medium is Duncan's medium modified to contain […] sucrose.
Embryos with callus response: • Immature embryos are sterilized as described above and plated on callus initiation medium (2DG4-5Chl) and cultured therein for 1 to 7 days. The resulting tissue is used as samples for inoculation.
(§1) Strain A. tumefaciens LBA4404 (pAL4404, pSB1) is used in these experiments. pAL4404 is a disarmed helper plasmid. pSB1 is a wide host range plasmid that contains a region of homology to pGIGUP and a 15.2 kb Kpnl fragment from the virulence region of pTiBo542 (Ishida et al., 1996; High efficiency transformation of maize (Zea mays L.) mediated by Agrobacterium tumefaciens, Nature Biotechnology 14, 745-750). The introduction of the plasmid pGlGUP by electroporation into LBA4404(pAL4404, pSB1) results in a cointegration of pGlGUP and pSB1. The T-DNA of this plasmid contains a plant expressible PAT gene driven by the ubiquitin promoter to provide resistance to phosphinothricin and a gene for GUS with an intron in the N-terminal codon of the coding sequence driven by the Gelvin promoter. This intron-GUS gene expresses GUS activity in the plant cell but not in Agrobacterium.
(§2) Agrobacterium is grown for 3 days on YP medium (5g/l yeast extract, 10g/l peptone, 5g/l NaCl, 15 g/l agar, pH 6.8) supplemented with 50 mg/l spectinomycin and 10 mg/l tetracycline. Bacteria are collected with a loop and suspended in N6 liquid medium at a density ranging from 10^9 to 5 10^9cells/ml. Agrobacterium cells can also be collected from an overnight culture in YP medium and resuspended in N6 liquid medium.
(§3) Maize tissues prepared as described above are inoculated with Agrobacterium. Maize tissues are soaked in the bacterial suspension for 5-10 min and then plated on medium with or without silver nitrate (1 to 10 mg/l). Tissues are also inoculated with a 5 µl drop 10^9 to 5x10^9cells/ml of an Agrobacterium suspension placed on the top of the tissue. After inoculation, maize tissues are cultured in the dark at 25°C with or without silver nitrate in the medium (1 to 10 mg/l). 2 or 3 days after inoculation, tissues are transferred on the same medium supplemented with cefotaxime (250 mg/l) with or without silver nitrate.

Series [2] relates to maize type I callus. As to conditions: transfer 2DG4+ AgNO3 + Cef, 2 weeks. As to the method: Embryos plated on callus initiation medium (2DG4 + 5 Chloramben) for 7 to 20 days give rise to callus. […] Resultant embryogenic callus are cut out of embryos and transferred to callus maintenance medium, 2DG4 + 0.5 mg/l (2,4-dichlorophenoxy) acetic acid (2,4-D) and used as samples for inoculation.
Type I callus obtained by the method described above can be maintained on the maintenance medium (2DG4 + 2,4 D 0.5 mg/l) and subcultured every 2 weeks.
as §1, §2, §3

Series [3] deals with tobacco leaf discs. The settings on record: silver nitrate during co-cultivation; LBA4404(GIGUP) 10^9 cells/ml.
Series [4] concerns cell line HE/89. The series is described as follows: DNA fragmentation (DNA ladders) after Agrobacterium exposure, sensitivity to added agents. It counts as cell-based. As to conditions: maize cells exposed to Agrobacterium, agent added. Here is the method:
In order to determine the mechanism of cell death induced by Agrobacterium in maize tissues, genomic DNA is extracted from plant suspension cells harvested 24 or 48 hours after inoculation with Agrobacterium. Exposure to Agrobacterium causes DNA fragmentation in both maize lines, with a pattern characteristic of internucleosomal fragmentation, which is considered an early hallmark of programmed cell death. […] Furthermore, maize cells undergoing programmed cell death could not induce cell death of fresh maize embryogenic tissues.
Further evidence for Agrobacterium inducing DNA fragmentation is obtained by investigating the sensitivity of the process to Zn^2+ and Ca^2+. […] These characteristics are fully consistent with the effect of these divalent cations on the endogenous endonucleases responsible for DNA cleavage during apoptosis in animal system. The intensity of the ladder also is decreased by addition of cycloheximide, evidence that the process requires de novo gene expression. […] Fragmentation of DNA during apoptosis is also detected in situ by reagents that react with the exposed hydroxyls on the nucleosome units. 12 day old maize embryos from a proprietary elite line of Lancaster parentage are inoculated with LBA4404 and plated on DG4 medium supplemented with chloramben. Koziel, M.G., & al. 1993. Bio/Technology 11: 194-200. Apoptotic cells are detected by in situ staining with TACS-1 kit (Trevigen), which involves end labeling the DNA fragments by the klenow enzyme using dNTP conjugated to a detectable marker, giving a dark insoluble precipitate indicative of genomic fragmentation. Cullivier, O., Pirianov, G., Kleuser, B., Vanek, P.G., Coso, O.A., Gutking, J.S. and Spiegel, S. (1996) Nature 381, 800-803. Embryos are soaked in 3.7% formadehyde solution and processed as described by the manufacturer. To detect genomic DNA cleavage in situ, fixed embryos are treated with the TACS-1 kit. Fixed cross-sections are first treated with proteinase K for 5 min at room temperature and then dipped for 5 min into 2% hydrogen peroxide to remove endogenous peroxidase. […]

In series [5] the test system is HE/89.
Method: The following experiments employ maize inbred lines (Zea mays L. ) HE/89 and a line here designated as Elite 1. […] Suspension culture of Elite 1 is initiated from friable embryogenic callus selected from immature embryos. The HE/89 line is grown in a modified liquid N6 medium amended with 500 mg/l Bacto tryptone, 30 g/l sucrose and 0.5 mg/l 2,4-dichlorophenoxy acetic acid (2,4-D) (N6M). The Elite 1 line is grown in N6 liquid medium (Chu et al., 1975) supplemented with 30 g/l sucrose and 2 mg/l 2,4-D (2N63S). The Nicotiana tabacum cell line NT-1 grown in Murashige and Skoog medium supplemented with 2 mg/l of 2,4-D and sucrose (30g/l) (MS3S) is used as an Agrobacterium-susceptible control. Suspension cultures are maintained in liquid medium on a rotary shaker (120 rpm) and are subcultured every 7 days.
Bacteria are grown in YP medium (5 g/L yeast extract, 10 g/l peptone, 5 g/l NaCl, pH 6.8) for 24 hr at 28°C. […]
Friable embryogenic callus of HE/89 maize and of a proprietary elite inbred maize maintained in liquid medium are incubated with Agrobacterium for 10 min, 1 hr, 24 hr or 48 hrs prior to transfer to cefotaxim-containing medium. […] The presence or absence of necrosis is scored 2, 4 and 7 days after inoculation and the relative intensity of necrosis is expressed as follow: +, rare formation of necrosis; ++, weak necrosis; +++, strong necrosis; ++++, very strong necrosis.

For `O=[N+]([O-])[O-].[Ag+]` [AgNO3, silver nitrate], the “embryos able to produce embryogenic calli” value in series [1] (embryos plated on medium containing silver nitrate, inoculated with Agrobacterium) was “About 50%”. Besides, the “Score (Callus initiation)” value is listed as 55% in series [1] (no pretreatment, co-inoculation 2DG4 + AgNO3, LBA4404 (GIGUP) 10^9 cells/ml); 30% in series [1] (no pretreatment, co-inoculation 2DG4, LBA4404 (GIGUP) 10^9 cells/ml); 88% in series [1] (pretreatment 2DG4 (6 days) + 1 day on 2DG4 + AgNO3, co-inoculation 2DG4 + AgNO3); 65% in series [1] (pretreatment 2DG4 (6 days), co-inoculation 2DG4 + AgNO3); 43% in series [1] (pretreatment 2DG4 + AgNO3 (1 day), co-inoculation 2DG4 + AgNO3); 27% in series [1] (pretreatment 2DG4 + AgNO3(4 days), co-inoculation 2DG4 + AgNO3). Moreover, the “Score (Survival of tissues)” value in series [2] (1/2 month old Type I callus, pretreatment 2DG4+AgNO3, co-inoculation 2DG4+AgNO3) turned out to be 95%; in series [2] (1/2 month old Type I callus, pretreatment 2DG4, co-inoculation 2DG4+AgNO3), 75%; in series [2] (10 month-old Type I callus, pretreatment 2DG4+ AgNO3, co-inoculation 2DG4+ AgNO3), 66%; in series [2] (10 month-old Type I callus, pretreatment 2DG4, co-inoculation 2DG4+ AgNO3), 55%. In series [3], the GUS activity entry is “No significant decrease”.
With `[Ca+2]` [Ca^2+], the “intensity of DNA ladders (genomic fragmentation)” value (shortened to “intensity of DNA ladders”) in series [4] is given as “increased the intensity of DNA ladders”.
With `[Zn+2]` [Zn^2+], in series [4], the “intensity of DNA ladders” value was “markedly reduced genomic fragmentation”.
Take `CO/N=C(\C(=O)N[C@@H]1C(=O)N2C(C(=O)O)=C(COC(C)=O)CS[C@H]12)c1csc(N)n1` [cefotaxime]: the “necrosis of maize tissue” value in series [5] is recorded as “does not cause the maize tissue to become necrotic”.
As for `C[C@@H]1C[C@@H]([C@H](O)CC2CC(=O)NC(=O)C2)C(=O)[C@@H](C)C1` [cycloheximide], the “intensity of DNA ladders” value in series [4] is reported as “decreased”.
